Laboratory results reported in patent publication US20180002400A1, “SHORT PEPTIDE-BASED THERAPEUTIC AGENT AND MEDICINAL COMPOSITION INCLUDING THE SAME FOR INHIBITING ACTIVITIES OF CANCER CELLS” (NATIONAL CHENG KUNG UNIVERSITY, priority 2015, published 2018).

Tests used:
Type in all cases: cell-based, human
[1] = system: drug-resistant breast cancer MB231R (MBR) cells; assay: Cancer cell invasion (matrigel-coated insert) induced by euPTX3
[2] = system: drug-resistant breast cancer MB231R (MBR) cells; assay: Cancer cell migration (Boyden chamber) induced by euPTX3
Procedure: [The procedure below names another cell line; the source lists this cell line under the same test.] (§1) The cell density 5×10^4 cells/well of the breast cancer MB231 cell, the lung cancer A549 cell and the nasopharyngeal cancer HONE1 cell were seeded into each upper insert of 24-well plate (containing 8-μm pore insert per well; BD Biosciences) for 19 hours, and each lower well was added with the short peptides RI37, GI40 and KT44 (10 μg/mL or 225 nM of the short peptide) and the polypeptide euPTX3 (2.5 μg/mL) of Example 1, for evaluating the influence of migration of the cancer cell of Example 2 using several short peptides of Example 1.
(§2) The cell density 5×10^4 cells/well of the breast cancer MB231 cell, the lung cancer A549 cell and the nasopharyngeal cancer HONE1 cell were seeded into each upper insert of Boyden chamber for 3 hours of cultivation.
(§3) And then, the medium in each upper insert was replaced by serum-free medium, and the medium in each lower well was added with the short peptides RI37, GI40, KT44 and the polypeptide euPTX3 of Example 1. The cells inside each upper insert were wiped with cotton swabs and removed after 16 hours of cultivation. Remaining cells that had migrated to the bottom of the insert membrane were stained by 4′,6-diamidino-2-phenylindole (DAPI; Invitrogen) and calculated under fluorescence microscopy with 200-fold magnification.

lung cancer A549 cell [3] = assay: as above; details: A549; short peptide 10 μg/mL + euPTX3 2.5 μg/mL; FIG. 2C left panel
Procedure: as §1, §2, §3

[4] = system: nasopharyngeal cancer HONE1 cell; assay: as above; details: HONE1; short peptide 10 μg/mL + euPTX3 2.5 μg/mL; FIG. 3C left panel
Procedure: as §1, §2, §3

breast cancer MB231 cell = assay: Drug resistance (CDDP, 5-FU) induced by euPTX3, MTT assay; details: MB231; short peptide 10 μg/mL or 225 nM + euPTX3 2.5 μg/mL 1 week, then 40 μM CDDP or 100 μM 5-FU 48 hours; FIG. 1D
Procedure: (§4) The cell density 1×10^4 cells/well of the breast cancer MB231 cell, the lung cancer A549 cell and the nasopharyngeal cancer HONE1 cell were co-cultured with the short peptides RI37, GI40 and KT44 (10 μg/mL or 225 nM of the short peptide) and the polypeptide euPTX3 (2.5 μg/mL) of Example 1. After 1 week of cultivation, those cancer cells were added with 40 μM of CDDP or 100 μM of 5-FU respectively and cultured for 48 hours. Based on the cell viability of the cells only co-cultured with the polypeptide euPTX3 (2.5 μg/mL) as 100%, the influence of drug resistance of the cancer cells of Example 2 using the short peptides of Example 1 could be determined according to the aforementioned MTT assay.

lung cancer A549 cell [5] = assay: as above; details: A549; short peptide 10 μg/mL or 225 nM + euPTX3 2.5 μg/mL 1 week, then 40 μM CDDP or 100 μM 5-FU 48 hours; FIG. 2B
Procedure: as §4

[6] = system: nasopharyngeal cancer HONE1 cell; assay: as above; details: HONE1; short peptide 10 μg/mL or 225 nM + euPTX3 2.5 μg/mL 1 week, then 40 μM CDDP or 100 μM 5-FU 48 hours; FIG. 3B
Procedure: as §4

[7] = MB231R (MBR), identical molecular number: euPTX3 2.5 μg/mL, RI37 3.7 μg/mL, GI40 4 μg/mL, pPTX3/C 10 μg/mL, FIG. 5B right panel
[8] = breast cancer cells, short peptide 10 μg/mL + euPTX3 2.5 μg/mL, FIG. 1E right panel
[9] = MB231R (MBR), identical molecular number: euPTX3 2.5 μg/mL, RI37 3.7 μg/mL, GI40 4 μg/mL, pPTX3/C 10 μg/mL, FIG. 5B left panel
[10] = breast cancer cells, short peptide 10 μg/mL + euPTX3 2.5 μg/mL, FIG. 1E left panel

RI37: artificially synthetic short peptide having the amino acid sequence listed as SEQ ID NO:1, designed from human PTX3 (NP_002843.2) (RPMRLESFSACIWVKATDVLNKTILFSYGTKRNPYEI; The 200th amino acid to 236th amino acid of Human sapiens PTX3 (RI37))
invasive cell numbers induced by the polypeptide euPTX3 [1, 7]: could effectively inhibit the invasive cell numbers | invasive cell numbers induced by the polypeptide euPTX3 [1, 8]: could effectively inhibit the invasive cell numbers | migrated cell numbers induced by the polypeptide euPTX3 [2, 9]: could effectively inhibit the migrated cell numbers | migrated cell numbers induced by the polypeptide euPTX3 [2, 10]: could effectively inhibit the migrated cell numbers | migrated cell numbers induced by the polypeptide euPTX3 (lung cancer A549 cell [3]): could effectively inhibit the migrated cell numbers | migrated cell numbers induced by the polypeptide euPTX3 [4]: could effectively inhibit the migrated cell numbers | drug resistance induced by the polypeptide euPTX3 (cell viability) (breast cancer MB231 cell): could effectively inhibit the drug resistance | drug resistance induced by the polypeptide euPTX3 (cell viability) (lung cancer A549 cell [5]): could effectively inhibit the drug resistance | drug resistance induced by the polypeptide euPTX3 (cell viability) [6]: could effectively inhibit the drug resistance

GI40: artificially synthetic short peptide having the amino acid sequence listed as SEQ ID NO:2, designed from human PTX3 (NP_002843.2) (GGGFDETLAFSGRLTGFNIWDSVLSNEEIRETGGAESCHI; The 320th amino acid to 359th amino acid of Human sapiens PTX3 (GI40))
invasive cell numbers induced by the polypeptide euPTX3 [1, 7]: could effectively inhibit the invasive cell numbers | invasive cell numbers induced by the polypeptide euPTX3 [1, 8]: could effectively inhibit the invasive cell numbers | migrated cell numbers induced by the polypeptide euPTX3 [2, 9]: could effectively inhibit the migrated cell numbers | migrated cell numbers induced by the polypeptide euPTX3 [2, 10]: could effectively inhibit the migrated cell numbers | migrated cell numbers induced by the polypeptide euPTX3 (lung cancer A549 cell [3]): could effectively inhibit the migrated cell numbers | migrated cell numbers induced by the polypeptide euPTX3 [4]: could effectively inhibit the migrated cell numbers | drug resistance induced by the polypeptide euPTX3 (cell viability) (breast cancer MB231 cell): could effectively inhibit the drug resistance | drug resistance induced by the polypeptide euPTX3 (cell viability) (lung cancer A549 cell [5]): could effectively inhibit the drug resistance | drug resistance induced by the polypeptide euPTX3 (cell viability) [6]: could effectively inhibit the drug resistance

KT44: artificially synthetic peptide having the amino acid sequence listed as SEQ ID NO:3 (KLVAEAMVSLGRWTHLCGTWNSEEGLTSLWVNGELAATTVEMAT; The 255th amino acid to 298th amino acid of Human sapiens PTX3 (KT44))
invasive cell numbers induced by the polypeptide euPTX3 [1, 8]: could not inhibit the invasive cell numbers | migrated cell numbers induced by the polypeptide euPTX3 [2, 10]: could not inhibit the migrated cell numbers | migrated cell numbers induced by the polypeptide euPTX3 (lung cancer A549 cell [3]): could not inhibit the migrated cell numbers | migrated cell numbers induced by the polypeptide euPTX3 [4]: could not inhibit the migrated cell numbers | drug resistance induced by the polypeptide euPTX3 (cell viability) (breast cancer MB231 cell): could not significantly inhibit the drug resistance | drug resistance induced by the polypeptide euPTX3 (cell viability) (lung cancer A549 cell [5]): could not significantly inhibit the drug resistance | drug resistance induced by the polypeptide euPTX3 (cell viability) [6]: could not significantly inhibit the drug resistance
